Consider three compounds from patent publication US9399653B2, “Methods and systems for preparing irreversible inhibitors of protein tyrosine phosphatases” (The Governors of the University of Alberta, priority 2010, dated 2016).

Several values for one entry are separate records, joined by “and”; a condition that tells them apart may be missing. Equal entries are not always repeated.

Assay [1] addresses T1, human CD45-cytoplasmic domain (Homo sapiens, UniProt P08575).
T1 construct: human CD45-cytoplasmic domain (Enzo Life Science); purchased Enzo Life Science
T1 sequence (P08575 599-1306 limits assumed): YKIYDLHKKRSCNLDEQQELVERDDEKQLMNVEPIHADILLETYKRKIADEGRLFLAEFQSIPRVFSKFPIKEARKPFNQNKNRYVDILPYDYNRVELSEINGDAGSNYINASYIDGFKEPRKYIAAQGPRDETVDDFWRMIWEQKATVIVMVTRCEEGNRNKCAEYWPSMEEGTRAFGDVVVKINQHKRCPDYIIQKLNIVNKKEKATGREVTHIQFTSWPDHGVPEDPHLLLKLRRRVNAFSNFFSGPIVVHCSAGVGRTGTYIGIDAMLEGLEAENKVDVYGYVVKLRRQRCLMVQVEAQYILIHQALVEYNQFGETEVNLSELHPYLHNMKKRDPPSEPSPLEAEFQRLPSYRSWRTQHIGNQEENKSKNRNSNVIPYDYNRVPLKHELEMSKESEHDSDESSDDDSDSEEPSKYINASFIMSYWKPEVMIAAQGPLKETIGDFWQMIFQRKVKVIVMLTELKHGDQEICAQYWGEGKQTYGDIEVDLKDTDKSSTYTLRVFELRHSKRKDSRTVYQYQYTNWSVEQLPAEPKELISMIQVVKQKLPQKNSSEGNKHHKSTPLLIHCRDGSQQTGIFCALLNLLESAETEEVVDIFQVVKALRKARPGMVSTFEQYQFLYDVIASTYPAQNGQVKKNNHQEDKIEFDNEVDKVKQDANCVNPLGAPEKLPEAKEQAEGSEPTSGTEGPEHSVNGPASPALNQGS
Kind of assay: Phosphatase enzyme inhibition, CD45, fluorogenic substrate DiFMUP. Conditions: for inhibition of CD45 (in words): DiFMUP substrate. Format: biochemical. On the procedure: Enzyme assays were conducted using human CD45-cytoplasmic domain (Enzo Life Science; diluted to 4 mU/μL in 50 mM HEPES, pH 7.2, 1 mM EDTA, and 0.1% nonidet P-40) (FIG. 6-8), or bovine alkaline phosphatase (New England Bio Labs; diluted to 4 mU/μL in 100 mM NaCl, 50 mM tris-HCl, 10 mM MgCl2 1 mM dithiothreitol, pH 7.9) (FIG. 2-5). Enzyme activity was detected with a fluorogenic substrate (6,8-difluoro-4-methylumbelliferyl phosphate; DiFMUP) (Invitrogen). Assays were performed in black 96-well plates and read in a Spectra Max M2 plate reader (Molecular Devices). For CD45 assays, substrate concentration was between 1 μM to 50 μM, for alkaline phosphatase substrate concentration was between 10 nM to 10 μM. Stock solutions of inhibitors (100 mM of compound 7 in deionized water; and 10 mM of compound 17 in 50% deionized water and 50% DMSO) were prepared and stored at −20° C. Final solutions in microplate wells contained a total volume of 100 μL consisting of 2 μL of diluted enzyme, inhibitor, and DiFMUP substrate diluted to 100 μL in the appropriate buffer. All wells were incubated for 10 min at 37° C. in the plate reader prior to the addition of DiFMUP. After incubation, substrate was added and the plate was read at an excitation maximum of 358 nm and an emission maximum of 450 nm every 30 seconds for 125 min (CD45) or 65 min (alkaline phosphatase).
The Km for DiFMUP with each enzyme was first determined, and the experiment was then repeated in the presence of the inhibitor at a concentration close to an initially estimated K, (TABLE 1). […] Previous reports of PTP inhibition using BBP analogs observed irreversible inhibition of the enzyme.(22) Evaluation of the kinetic data described above using reciprocal plots (FIG. 9-12) was not consistent with pure competitive inhibition of CD45, but this analysis is not conclusive on its own.
(§1) The Kitz-Wilson analysis estimated the rate of irreversible inhibition (k3) of CD45 at 0.05 min^−1 for both compounds. To provide additional support for the expected mechanism of inhibition, we measured CD45 activity for an enzyme sample which was pre-incubated with the inhibitor and compared it to an enzyme sample that was only incubated with the inhibitor for a short period.

Assay [2] concerns the target T2, CD45 (Homo sapiens, UniProt P08575).
T2 construct: Enzyme assays were conducted using human CD45-cytoplasmic domain (Enzo Life Science); purchased Enzo Life Science
T2 sequence (P08575 599-1306 limits assumed): T1 sequence (P08575 599-1306 limits assumed)
Kind of assay: Time-dependent inhibition of CD45 (pre-incubation with inhibitor). It counts as biochemical. Conditions: compound at 25 μM, enzyme incubated 13 h (FIG. 13). On the procedure: FIG. 13 is a plot of time-dependent inhibition of CD45 enzyme activity in the presence of compound 1 at a concentration of 25 μM. The enzyme was incubated for 13 h, either alone or in the presence of compound 1.
Time-Dependent Inhibition of CD45 by Compound 1
as §1

Take `O=P(O)(O)C(Br)c1ccccc1` (centres unmarked) [compound 7, [bromo(phenyl)methyl]phosphonic acid, reference compound]: the “inhibition of CD45 (in words)” value in assay [1] was “failure to alter the rate of reaction”. Moreover, the KI entry in assay [1] (Kitz-Wilson analysis) was “did not give a saturating curve”.

With `CC(C)C[C@H](NC(=O)[C@H](Cc1ccc(C(Br)P(=O)(O)O)cc1)NC(=O)[C@@H](N)CC(=O)O)C(=O)O` (some centres unmarked) [compound 17, Asp-BrPmp-Leu], the “inhibition of CD45 (in words)” value in assay [1] is “significant inhibition of the enzyme at low micromolar concentrations”. Moreover, in assay [1] (Kitz-Wilson analysis), the Ki (in general, the equilibrium dissociation constant of an inhibitor or competing ligand from its target) was determined as 16 ± 4 µM; the “k3, rate of enzyme inactivation” value is 0.05 min⁻¹ and 0.048 ± 0.003 min⁻¹. Further, the “potency relative to BrPmp alone” value in assay [1] (from Kitz-Wilson KI values (Example 8)) is recorded as “approximately 4 fold”. The “potency relative to BrPmp alone” value in assay [1] (initial kinetic data (Example 7)) is on record as “approximately 7 fold”.

Regarding L-BrPmp-OH [compound 1], the “CD45 activity after pre-incubation with inhibitor” value in assay [2] was “at long incubation times completely inactivated the enzyme”.
